Assay results: patent publication US12473304B2, “Heterocyclic PAD4 inhibitors” (BRISTOL-MYERS SQUIBB COMPANY, priority 2020, dated 2025)

Biological target: human PAD4 (hPAD4) (Homo sapiens (Human), UniProt Q9UM07)
Experiment: RFMS Human PAD4 Functional Assay 1
Assay type: biochemical
Settings: RFMS assay 1; 5 nM hPAD4, 250 μM BAEE substrate, 50 μM calcium, 37° C.
Description: RFMS Human PAD4 Functional Assay 1:
Compounds were solubilized in 100% DMSO to achieve all) mM compound concentration. Compound stock solutions were stored at RT. A series of dilutions were prepared in DMSO and mixed 8 times with 20 μL mixing volume. Final top concentration of compound in the assay is 50 μM. Final assay conditions were as follows: • Reaction volume: 26 μl • Assay buffer: 25 mM hepes, pH 7.5, 5 mM NaCl, 1 mM DTT, 0.2 mg/ml BSA, 0.01% CHAPS, 50 μM Calcium, and 5 μM TPEN • Final concentrations: 5 nM hPAD4 enzyme, 250 μM BASE, and 0.5% DMSO • Total incubation time: 30 mins compound and enzyme preincubation at 37° C., 90 min enzyme/substrate reaction, 30 min reaction with phenyl glyoxal at 37° C. • Stop solution: 40 μl 5% TCA in ACN
0.13 μL of compound solution was added to 13 μL of 10 nM PAD4 in assay buffer. After 30 min 13 μl of 500 μM of BAEE was added in 25 mM hepes, pH 7.5, 5 mM NaCl, 1 mM DTT, 0.2 mg/ml BSA, 0.01% CHAPS, 50 μM Calcium, 5 μM TPEN was added and the reaction incubated for 90 min at 37° C. The enzymatic reaction was quenched by addition of 15 μl of 6.1N TCA, 100% Final Concentration is 20%, 35 μl of 8.5 mM phenyl glyoxal (final concentration 4 mM) is then added and the reaction is incubated for 30 min at 37° C.
After 30 minutes the plates are spun down to remove all precipitate. The enzyme reaction was quenched with an equal volume of methanol containing internal standard (modified citrulline). Samples were loaded onto the Rapid Fire RF300 system (Agilent) wherein they were first sipped for 1000 ms and then directly loaded to a C18 separations cartridge using a mixture of acetonitrile containing 0.01% formic acid for 3000 ms desalting. The flow rate of the mobile phase was 1.5 ml/min. Once the samples were eluted from the cartridge, a mobile phase of acetonitrile containing 0.01% formic acid was used to move the samples into the mass spectrometer for 4000 ms at a flow rate of 1.25 ml/min/Sciex API5500 triple quadrupole mass spectrometer (Applied Biosystems) equipped with ESI was used to analyze the peptidyl citrulline and internal standard ions.
MRM transition of product and internal standard were monitored at m/z 424.5 to 350.4 and m/z 293 to 247 respectively. The dwell time for each transition was set at 200 ms, and the ESI voltage was used at 5500 with a source temperature of 400° C. Extracted ion peaks for each transition were integrated using the Rapid Fire Integrator software. Peak area of analyte was normalized with internal standard.).

Sequence of human PAD4 (hPAD4) (Q9UM07 whole entry): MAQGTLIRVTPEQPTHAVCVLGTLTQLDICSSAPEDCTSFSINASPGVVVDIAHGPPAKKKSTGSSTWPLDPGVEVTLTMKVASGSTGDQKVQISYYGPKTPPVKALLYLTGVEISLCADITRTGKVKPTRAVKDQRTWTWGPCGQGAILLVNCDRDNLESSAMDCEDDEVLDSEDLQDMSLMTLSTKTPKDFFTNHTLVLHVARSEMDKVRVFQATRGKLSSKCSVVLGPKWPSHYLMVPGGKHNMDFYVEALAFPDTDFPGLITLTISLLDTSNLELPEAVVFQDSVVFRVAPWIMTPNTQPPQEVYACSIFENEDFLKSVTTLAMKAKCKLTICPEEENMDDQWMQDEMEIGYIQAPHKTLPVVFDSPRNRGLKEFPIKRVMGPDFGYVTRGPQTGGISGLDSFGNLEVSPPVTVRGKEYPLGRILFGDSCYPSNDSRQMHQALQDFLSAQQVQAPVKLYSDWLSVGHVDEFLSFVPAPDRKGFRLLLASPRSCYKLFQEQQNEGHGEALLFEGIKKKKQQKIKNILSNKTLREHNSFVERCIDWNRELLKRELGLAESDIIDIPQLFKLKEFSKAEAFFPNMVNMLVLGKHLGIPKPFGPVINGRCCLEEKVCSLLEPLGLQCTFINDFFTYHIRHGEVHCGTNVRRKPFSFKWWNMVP

| Compound | IC50 [nM] |
| --- | --- |
| Cc1c(-c2cc3ccc(OCC4CNC(=O)C4)nc3n2CC2CC2)nn2cc(C(=O)N3CC4CCC3[C@@H]4N)cc(F)c12 (mixture of isomers) [Example 275, 4-{[(2-{6-[(7R)-7-Amino-2-azabicyclo[2.2.1]heptane-2-carbonyl]-4-fluoro-3-methylpyrazolo[1,5-a]pyridin-2-yl}-1-(cyclopropylmethyl)-1H-pyrrolo[2,3-b]pyridin-6-yl)oxy]methyl}pyrrolidin-2-one] | 120 |
| Cc1c(-c2cc3ccc(C(C)(O)C(F)F)nc3n2CC2CC2)nn2cc(C(=O)N3CC4CCC3[C@@H]4N)ccc12 (mixture of isomers) [Example 381, 2-(2-{6-[(7R)-7-Amino-2-azabicyclo[2.2.1]heptane-2-carbonyl]-3-methylpyrazolo[1,5-a]pyridin-2-yl}-1-(cyclopropylmethyl)-1H-pyrrolo[2,3-b]pyridin-6-yl)-1,1-difluoropropan-2-ol] | 20 |
| Cc1c(-c2cc3ccc(C(C)(O)C(F)(F)F)nc3n2CC2CC2)nn2cc(C(=O)N3CCC[C@@H](N)C3)ccc12 (mixture of isomers) [Example 382, 2-(2-{6-[(3R)-3-Aminopiperidine-1-carbonyl]-3-methylpyrazolo[1,5-a]pyridin-2-yl}-1-(cyclopropylmethyl)-1H-pyrrolo[2,3-b]pyridin-6-yl)-1,1,1-trifluoropropan-2-ol] | 150 |
| Cc1c(-c2cc3ccc(C(C)O)nc3n2CC2CC2)nn2cc(C(=O)N3CCC[C@@H](N)C3)ccc12 (mixture of isomers) [Example 385, 1-(2-{6-[(3R)-3-Aminopiperidine-1-carbonyl]-3-methylpyrazolo[1,5-a]pyridin-2-yl}-1-(cyclopropylmethyl)-1H-pyrrolo[2,3-b]pyridin-6-yl)ethan-1-ol] | 270 |
| COc1cc(C(=O)N2CCC[C@@H](N)C2)cn2nc(-c3cc4cccc(C5CCN(C(=O)C6CC(O)(C(F)(F)F)C6)CC5)c4n3CC3CC3)c(C)c12 (mixture of isomers) [Example 398, (R)-(3-Aminopiperidin-1-yl)(2-(1-(cyclopropylmethyl)-7-(1-(3-hydroxy-3-(trifluoromethyl)cyclobutane-1-carbonyl)piperidin-4-yl)-1H-indol-2-yl)-4-methoxy-3-methylpyrazolo[1,5-a]pyridin-6-yl)methanone] | 40 |
| COc1cc(C(=O)N2C[C@H](N)C[C@@H](F)C2)cn2nc(-c3cc4cccc(C5CCN(C(=O)C6CC(O)(C(F)(F)F)C6)CC5)c4n3CC3CC3)c(C)c12 (mixture of isomers) [Example 399, ((3R,5R)-3-Amino-5-fluoropiperidin-1-yl)(2-(1-(cyclopropylmethyl)-7-(1-(3-hydroxy-3-(trifluoromethyl)cyclobutane-1-carbonyl)piperidin-4-yl)-1H-indol-2-yl)-4-methoxy-3-methylpyrazolo[1,5-a]pyridin-6-yl)methanone] | 50 |
| COc1cc(C(=O)N2CCC[C@@H](N)C2)cn2nc(-c3cc4cccc(C5CCN(C(=O)C6CCCO6)CC5)c4n3CC3CC3)c(C)c12 (mixture of isomers) [Example 400, ((R)-3-Aminopiperidin-1-yl)(2-(1-(cyclopropylmethyl)-7-(1-(tetrahydrofuran-2-carbonyl)piperidin-4-yl)-1H-indol-2-yl)-4-methoxy-3-methylpyrazolo[1,5-a]pyridin-6-yl)methanone] | 660 |
| Cc1c(-c2cc3cccc(C4CCN(C(=O)C5CC(O)C5)CC4)c3n2CC2CC2)nn2cc(C(=O)N3C[C@H](N)C[C@@H](F)C3)cc(F)c12 (mixture of isomers) [Example 419, ((3R,5R)-3-Amino-5-fluoropiperidin-1-yl)(2-(1-(cyclopropylmethyl)-7-(1-(3-hydroxycyclobutane-1-carbonyl)piperidin-4-yl)-1H-indol-2-yl)-4-fluoro-3-methylpyrazolo[1,5-a]pyridin-6-yl)methanone] | 8250 |
| Cc1c(-c2cc3cccc(C4CCN(C(=O)C5CC(O)C5)CC4)c3n2CC2CC2)nn2cc(C(=O)N3CCC[C@@H](N)C3)cc(F)c12 (mixture of isomers) [Example 420, (R)-(3-Aminopiperidin-1-yl)(2-(1-(cyclopropylmethyl)-7-(1-(3-hydroxycyclobutane-1-carbonyl)piperidin-4-yl)-1H-indol-2-yl)-4-fluoro-3-methylpyrazolo[1,5-a]pyridin-6-yl)methanone] | 290 |
| Cc1c(-c2cc3cccc(C4CCN(C(=O)C5CC(O)(C(F)(F)F)C5)CC4)c3n2CC2CC2)nn2cc(C(=O)N3C[C@H](N)C[C@@H](F)C3)cc(F)c12 (mixture of isomers) [Example 421, ((3R,5R)-3-Amino-5-fluoropiperidin-1-yl)(2-(1-(cyclopropylmethyl)-7-(1-(3-hydroxy-3-(trifluoromethyl)cyclobutane-1-carbonyl)piperidin-4-yl)-1H-indol-2-yl)-4-fluoro-3-methylpyrazolo[1,5-a]pyridin-6-yl)methanone] | 80 |
| Cc1c(-c2cc3cccc(C4CCN(C(=O)C5CC(O)(C(F)(F)F)C5)CC4)c3n2CC2CC2)nn2cc(C(=O)N3CCC[C@@H](N)C3)cc(F)c12 (mixture of isomers) [Example 422, (R)-(3-Aminopiperidin-1-yl)(2-(1-(cyclopropylmethyl)-7-(1-(3-hydroxy-3-(trifluoromethyl)cyclobutane-1-carbonyl)piperidin-4-yl)-1H-indol-2-yl)-4-fluoro-3-methylpyrazolo[1,5-a]pyridin-6-yl)methanone] | 400 |
| Cc1c(-c2cc3cccc(C4CCN(C(=O)C5CC(O)(C(F)(F)F)C5)CC4)c3n2CC2CC2)nn2cc(C(=O)N3CCC[C@@H](N)C3)ccc12 (mixture of isomers) [Example 456, (R)-(3-aminopiperidin-1-yl)(2-(1-(cyclopropylmethyl)-7-(1-(3-hydroxy-3-(trifluoromethyl)cyclobutane-1-carbonyl)piperidin-4-yl)-1H-indol-2-yl)-3-methylpyrazolo[1,5-a]pyridin-6-yl)methanone] | 30 |
| Cc1c(-c2cc3cccc(C4CCN(C(=O)C5CCCCO5)CC4)c3n2CC2CC2)nn2cc(C(=O)N3C[C@H](N)C[C@@H](F)C3)ccc12 (mixture of isomers) [Example 458] | 80 |
| Cc1c(-c2cc3cccc(C4CCN(C(=O)C5CCCO5)CC4)c3n2CC2CC2)nn2cc(C(=O)N3CCC[C@@H](N)C3)ccc12 (mixture of isomers) [Example 462, ((R)-3-aminopiperidin-1-yl)(2-(1-(cyclopropylmethyl)-7-(1-(tetrahydrofuran-2-carbonyl)piperidin-4-yl)-1H-indol-2-yl)-3-methylpyrazolo[1,5-a]pyridin-6-yl)methanone] | 30 |
| Cc1c(-c2cc3cccc(C4CCN(C(=O)C5CCCO5)CC4)c3n2CC2CC2)nn2cc(C(=O)N3C[C@H](N)C[C@@H](F)C3)ccc12 (mixture of isomers) [Example 463, ((3R,5R)-3-amino-5-fluoropiperidin-1-yl)(2-(1-(cyclopropylmethyl)-7-(1-(tetrahydrofuran-2-carbonyl)piperidin-4-yl)-1H-indol-2-yl)-3-methylpyrazolo[1,5-a]pyridin-6-yl)methanone] | 100 |
| Cc1c(-c2cc3cccc(C4CCN(C(=O)C5CC(O)C5)CC4)c3n2CC2CC2)nn2cc(C(=O)N3CCC[C@@H](N)C3)ccc12 (mixture of isomers) [Example 465, (R)-(3-aminopiperidin-1-yl)(2-(1-(cyclopropylmethyl)-7-(1-(3-hydroxycyclobutane-1-carbonyl)piperidin-4-yl)-1H-indol-2-yl)-3-methylpyrazolo[1,5-a]pyridin-6-yl)methanone] | 130 |
| Cc1c(-c2cc3cccc(C4CCN(C(=O)C5CC(O)C5)CC4)c3n2CC2CC2)nn2cc(C(=O)N3C[C@H](N)C[C@@H](F)C3)ccc12 (mixture of isomers) [Example 466, ((3R,5R)-3-amino-5-fluoropiperidin-1-yl)(2-(1-(cyclopropylmethyl)-7-(1-(3-hydroxycyclobutane-1-carbonyl)piperidin-4-yl)-1H-indol-2-yl)-3-methylpyrazolo[1,5-a]pyridin-6-yl)methanone] | 190 |
